Measurements from US20210130346A1, “Bromodomain Inhibitors” (AbbVie Inc., priority 2017, published 2021).

Each molecule was assayed against BRD4 (BDI_K57-E168) (Homo sapiens, UniProt O60885) (assay: TR-FRET bromodomain binding assay, BRD4 first bromodomain (BDI)). Settings: mean Ki; 12 nM His tagged BRD4 (BDI_K57-E168), 100 nM Alexa647 probe; Ki calculated from IC50, probe Kd and probe concentration.
Procedure: A time-resolved fluorescence resonance energy transfer (TR-FRET) assay was used to determine the affinities of compounds of the Examples listed in Table 1 for each bromodomain of BRD4. […] An Alexa647-labeled BET-inhibitor was used as the fluorescent probe in the assay.
Compound dilution series were prepared in DMSO via an approximately 3-fold serial dilution. Compound dilutions were added directly into white, low-volume assay plates (Perkin Elmer Proxiplate 384 Plus# 6008280) using a Labcyte Echo in conjunction with Labcyte Access and Thermo Multidrop CombinL robotics. Compounds were then suspended in eight microliters (μL) of assay buffer (20 mM Sodium Phosphate, pH 6.0, 50 mM NaCl, 1 mM Ethylenediaminetetraacetic acid disodium salt dihydrate, 0.01% Triton X-100, 1 mM DL-Dithiothreitol) containing His-tagged bromodomain, Europium-conjugated anti-His antibody (Invitrogen PV5596) and Alexa-647-conjugated probe.
After a one-hour equilibration at room temperature, TR-FRET ratios were determined using an Envision multilabel plate reader (Ex 340, Em 495/520).
TR-FRET data were normalized to the means of 24 no-compound controls (“high”) and 8 controls containing 1 μM un-labeled probe (“low”). Percent inhibition was plotted as a function of compound concentration and the data were fit with the 4 parameter logistic equation to obtain IC50s. Inhibition constants (Ki) were calculated from the IC50s, probe Kd and probe concentration.

Compound | Ki
CN1C(=O)[C@@]2(C[C@H]2c2cn(C)c(=O)c3[nH]ccc23)c2ccccc21 (racemic) [Example 30, rac-(1R,2S)-1′-methyl-2-(6-methyl-7-oxo-6,7-dihydro-1H-pyrrolo[2,3-c]pyridin-4-yl)spiro[cyclopropane-1,3′-indol]-2′(1H)-one] | 3440 nM
CN1C(=O)[C@@]2(C[C@H]2c2cn(C)c(=O)c3[nH]c(C4CN(C(=O)OC(C)(C)C)C4)cc23)c2ccccc21 (racemic) [Example 32, rac-tert-butyl 3-{6-methyl-4-[(1R,2S)-1′-methyl-2′oxo-1′,2′-dihydrospiro[cyclopropane-1,3′-indol]-2-yl]-7-oxo-6,7-dihydro-1H-pyrrolo [2,3-c]pyridin-2-yl}azetidine-1-carboxylate] | 2410 nM
CN1C(=O)[C@@]2(C[C@H]2c2cn(C)c(=O)c3[nH]c(-c4cnn(C)c4)cc23)c2ccccc21 (racemic) [Example 33, rac-(1R,2S)-1′-methyl-2-[6-methyl-2-(1-methyl-1H-pyrazol-4-yl)-7-oxo-6,7-dihydro-1H-pyrrolo[2,3-c]pyridin-4-yl]spiro[cyclopropane-1,3′-indol]-2′(1H)-one] | 531 nM
Cc1nn(C)cc1-c1cc2c([C@@H]3C[C@@]34C(=O)N(C)c3ccccc34)cn(C)c(=O)c2[nH]1 (racemic) [Example 36, rac-(1R,2S)-2-[2-(1,3-dimethyl-1H-pyrazol-4-yl)-6-methyl-7-oxo-6,7-dihydro-1H-pyrrolo[2,3-c]pyridin-4-yl]-1′-methylspiro[cyclopropane-1,3′-indol]-2′(1H)-one] | > 13000 nM
CN1C(=O)[C@@]2(C[C@H]2c2cn(C)c(=O)c3[nH]c(-c4cc[nH]n4)cc23)c2ccccc21 (racemic) [Example 37, rac-(1R,2S)-1′-methyl-2-[6-methyl-7-oxo-2-(1H-pyrazol-3-yl)-6,7-dihydro-1H-pyrrolo[2,3-c]pyridin-4-yl]spiro[cyclopropane-1,3′-indol]-2′(1H)-one] | 1250 nM
CN1C(=O)[C@@]2(C[C@@H]2c2cn(C)c(=O)c3[nH]c(-c4cc[nH]n4)cc23)c2ccccc21 (racemic) [Example 38, rac-(1R,2R)-1′-methyl-2-[6-methyl-7-oxo-2-(1H-pyrazol-3-yl)-6,7-dihydro-1H-pyrrolo[2,3-c]pyridin-4-yl]spiro[cyclopropane-1,3′-indol]-2′(1H)-one] | > 13000 nM
Cc1cc(-c2cc3c([C@@H]4C[C@@]45C(=O)N(C)c4ccccc45)cn(C)c(=O)c3[nH]2)on1 (racemic) [Example 39, rac-(1R,2S)-1′-methyl-2-[6-methyl-2-(3-methyl-1,2-oxazol-5-yl)-7-oxo-6,7-dihydro-1H-pyrrolo[2,3-c]pyridin-4-yl]spiro[cyclopropane-1,3′-indol]-2′(1H)-one] | 885 nM

The next lines start with the values.

Ki | Compound
7430 nM | Cn1cc([C@@H]2C[C@@]23C(=O)N(Cc2ccc(N)cc2)c2ccccc23)c2cc(C(=O)NC3CC3)[nH]c2c1=O (racemic) [Example 28, rac-4-{(1R,2S)-1′-[(4-aminophenyl)methyl]-2′oxo-1′,2′-dihydrospiro[cyclopropane-1,3′-indol]-2-yl}-N-cyclopropyl-6-methyl-7-oxo-6,7-dihydro-1H-pyrrolo [2,3-c]pyridine-2-carboxamide]
4840 nM | CN1C(=O)[C@@]2(C[C@H]2c2cn(C)c(=O)c3[nH]c(C(=O)NC4CC4)cc23)c2cccc(Br)c21 (racemic) [Example 29, rac-4-[(1R,2S)-7′-bromo-1′-methyl-2′-oxo-1′,2′-dihydrospiro[cyclopropane-1,3′-indol]-2-yl]-N-cyclopropyl-6-methyl-7-oxo-6,7-dihydro-1H-pyrrolo[2,3-c]pyridine-2-carboxamide]
811 nM | CN1C(=O)[C@@]2(C[C@H]2c2cn(C)c(=O)c3[nH]c(C4CC4)cc23)c2ccccc21 (racemic) [Example 31, rac-(1R,2S)-2-(2-cyclopropyl-6-methyl-7-oxo-6,7-dihydro-1H-pyrrolo[2,3-c]pyridin-4-yl)-1′-methylspiro[cyclopropane-1,3′-indol]-2′(1H)-one]
